Results as given in ChEMBL document CHEMBL5365552, “Tryptamines and Mental Health: Activating the 5-HT Receptor for Therapeutic Potential” (ACS Med Chem Lett, 2023).

Columns and labels:
Assay type in all cases: ADME, organism-based
[1] = Prodrug conversion in rat assessed as 4-OH-DiPT formation by measuring bioavailability at 2 mg/kg, sc measured for 15 to 360 mins by LCMS analysis; conditions: in vivo, time 15-360 min
[2] = Prodrug conversion in rat assessed as 4-OH-DiPT formation by measuring AUC at 2 mg/kg, iv measured for 15 to 360 mins by LCMS analysis; parameters: dose 2 mg/kg, time 15-360 min, route iv; conditions: in vivo
[3] = Prodrug conversion in rat assessed as 4-OH-DiPT formation by measuring AUC at 2 mg/kg, sc measured for 15 to 360 mins by LCMS analysis; parameters: dose 2 mg/kg, time upper 360 min, time lower 15 min, route sc; conditions: in vivo
[4] = Prodrug conversion in rat assessed as 4-OH-DiPT formation by measuring Cmax at 2 mg/kg, iv measured for 15 to 360 mins by LCMS analysis; parameters: time upper 360 min, dose 2 mg/kg, time lower 15 min, route iv; conditions: in vivo
[5] = Prodrug conversion in rat assessed as 4-OH-DiPT formation by measuring Cmax at 2 mg/kg, sc measured for 15 to 360 mins by LCMS analysis; parameters: time upper 360 min, time lower 15 min, dose 2 mg/kg, route sc; conditions: in vivo
[6] = Prodrug conversion in rat assessed as 4-OH-DiPT formation by measuring Tmax at 2 mg/kg, sc measured for 15 to 360 mins by LCMS analysis; conditions: in vivo, time 15-360 min

CC(C)N(CCc1c[nH]c2cccc(OC(=O)CCCC(=O)O)c12)C(C)C
F [1]: 89% | AUC [2]: 152 ng·h/mL | AUC [3]: 134 ng·h/mL | Cmax [4]: 458 ng/mL | Cmax [5]: 103 ng/mL | Tmax [6]: 36.6 min
